Test results taken from patent publication US20100197797A1 (priority 2009, published 2010).

Experiments:
fibromyalgia patients = test: Placebo-controlled trials in fibromyalgia patients (safety); format: in vivo, human; settings: for patients with >15 mmHg increase in SBP at the end of the study / patients with DBP increases >10 mmHg at end of study: hypertensive at baseline; for patients with increases in ALT: mild elevations (1-3 times ULN); for patients who became hypertensive at the end of the study (SBP≧140 mmHg or DBP≧90 mmHg): non-hypertensive at baseline; for incidence of suicidal ideation: patients with a history of depression at treatment initiation; for patients who became hypertensive at the end of the study: pre-hypertension at baseline (SBP 120-139 mmHg); for mean weight loss: up to 3 months
Excerpt: The stated frequencies of adverse reactions represent the proportion of individuals who experienced, at least once, a treatment-emergent adverse reaction of the type listed. A reaction was considered treatment emergent if it occurred for the first time or worsened while receiving therapy following baseline evaluation.

patients = test: Spontaneous / postmarketing reports; format: in vivo, human; settings: post-marketing, multiple drugs but also milnacipran hydrochloride only
Excerpt: However, because these adverse reactions were reported voluntarily from a population of uncertain size, it is not always possible to reliably estimate their frequency or establish a causal relationship to drug exposure.

plasma proteins = test: Plasma protein binding; format: in vitro ADME
[1] = 3-month placebo-controlled trials
[2] = all milnacipran hydrochloride (n = 1557)

CCN(CC)C(=O)C1(c2ccccc2)CC1CN.Cl (racemic) [milnacipran hydrochloride, (±)-[1R(S),2S(R)]-2-(aminomethyl)-N,N-diethyl-1-phenylcyclopropanecarboxamide hydrochloride]
Adverse reaction incidence: Insomnia (fibromyalgia patients; 200 mg/day (n = 934)): 12%
Adverse reaction incidence: Migraine (fibromyalgia patients; 200 mg/day (n = 934)): 4%
Adverse reaction incidence: Nausea (fibromyalgia patients; 200 mg/day (n = 934)): 39%
Adverse reaction incidence: Palpitations (fibromyalgia patients; 200 mg/day (n = 934)): 7%
Adverse reaction incidence: Paresthesia (fibromyalgia patients; 200 mg/day (n = 934)): 3%
Adverse reaction incidence: Pruritus (fibromyalgia patients; 200 mg/day (n = 934)): 2%
Adverse reaction incidence: Rash (fibromyalgia patients; 200 mg/day (n = 934)): 4%
Adverse reaction incidence: Tachycardia (fibromyalgia patients; 200 mg/day (n = 934)): 2%
Adverse reaction incidence: Tension headache (fibromyalgia patients; 200 mg/day (n = 934)): 1%
Adverse reaction incidence: Tremor (fibromyalgia patients; 200 mg/day (n = 934)): 2%
Adverse reaction incidence: Upper respiratory tract infection (fibromyalgia patients; 200 mg/day (n = 934)): 6%
Adverse reaction incidence: Vision blurred (fibromyalgia patients; 200 mg/day (n = 934)): 2%
Adverse reaction incidence: Vomiting (fibromyalgia patients; 200 mg/day (n = 934)): 7%
mean increase in diastolic blood pressure (DBP) (fibromyalgia patients; [1]): up to 3.1 mm Hg
mean increase in systolic blood pressure (SBP) (fibromyalgia patients; [1]): up to 3.1 mm Hg
dose dependence of effect on heart rate (fibromyalgia patients; 100 vs 200 mg/day): did not appear to increase with increasing dose
Adverse reaction incidence: Abdominal pain (fibromyalgia patients; [2]): 3%
Adverse reaction incidence: Anxiety (fibromyalgia patients; [2]): 4%
Adverse reaction incidence: Blood pressure increased (fibromyalgia patients; [2]): 3%
Adverse reaction incidence: Chest discomfort (fibromyalgia patients; [2]): 1%
Adverse reaction incidence: Chest pain (fibromyalgia patients; [2]): 2%
Adverse reaction incidence: Chills (fibromyalgia patients; [2]): 2%
Adverse reaction incidence: Constipation (fibromyalgia patients; [2]): 16%
Adverse reaction incidence: Decreased appetite (fibromyalgia patients; [2]): 2%
Adverse reaction incidence: Dizziness (fibromyalgia patients; [2]): 10%
Adverse reaction incidence: Dry mouth (fibromyalgia patients; [2]): 5%
Adverse reaction incidence: Dyspnea (fibromyalgia patients; [2]): 2%
Adverse reaction incidence: Flushing (fibromyalgia patients; [2]): 3%
Adverse reaction incidence: Headache (fibromyalgia patients; [2]): 18%
Adverse reaction incidence: Heart rate increased (fibromyalgia patients; [2]): 6%
Adverse reaction incidence: Hot flush (fibromyalgia patients; [2]): 12%
Adverse reaction incidence: Hyperhidrosis (fibromyalgia patients; [2]): 9%
Adverse reaction incidence: Hypertension (fibromyalgia patients; [2]): 5%
Adverse reaction incidence: Hypoesthesia (fibromyalgia patients; [2]): 1%
Adverse reaction incidence: Insomnia (fibromyalgia patients; [2]): 12%
Adverse reaction incidence: Migraine (fibromyalgia patients; [2]): 5%
Adverse reaction incidence: Nausea (fibromyalgia patients; [2]): 37%
Adverse reaction incidence: Palpitations (fibromyalgia patients; [2]): 7%
Adverse reaction incidence: Paresthesia (fibromyalgia patients; [2]): 2%
Adverse reaction incidence: Pruritus (fibromyalgia patients; [2]): 2%
Adverse reaction incidence: Rash (fibromyalgia patients; [2]): 3%
Adverse reaction incidence: Tachycardia (fibromyalgia patients; [2]): 2%
Adverse reaction incidence: Tension headache (fibromyalgia patients; [2]): 1%
Adverse reaction incidence: Tremor (fibromyalgia patients; [2]): 2%
Adverse reaction incidence: Upper respiratory tract infection (fibromyalgia patients; [2]): 6%
Adverse reaction incidence: Vision blurred (fibromyalgia patients; [2]): 2%
Adverse reaction incidence: Vomiting (fibromyalgia patients; [2]): 7%
elevated transaminases vs placebo (fibromyalgia patients; clinical trials): more patients treated with milnacipran hydrochloride developed elevated transaminases
risk of mydriasis (fibromyalgia patients; clinical trials): increased risk of mydriasis
incidence of dysuria (fibromyalgia patients; controlled fibromyalgia trials): 1%
incidence of genitourinary adverse reactions in male patients (fibromyalgia patients; each of dysuria, ejaculation disorder, erectile dysfunction, ejaculation failure, libido decreased, prostatitis, scrotal pain, testicular pain, testicular swelling, urinary hesitation, urinary retention, urethral pain, urine flow decreased, rate greater than placebo): at least 2%
increases of bilirubin (fibromyalgia patients; fibromyalgia clinical trials): not clinically significant
cases of ALT>3×ULN associated with bilirubin≧2×ULN (fibromyalgia patients; human, in vivo): No case
most common adverse reactions (incidence≧5% and twice placebo) (fibromyalgia patients; human, in vivo): constipation, hot flush, hyperhidrosis, vomiting, palpitations, heart rate increased, dry mouth, and hypertension
most frequently occurring adverse reaction (fibromyalgia patients; human, in vivo): nausea
patients with >15 mmHg increase in SBP at the end of the study (fibromyalgia patients; 100 mg/day): 7%
patients with DBP increases >10 mmHg at end of study (fibromyalgia patients; 100 mg/day): 8%
patients with >15 mmHg increase in SBP at the end of the study (fibromyalgia patients; 200 mg/day): 2%
patients with DBP increases >10 mmHg at end of study (fibromyalgia patients; 200 mg/day): 6%
patients with increases in ALT (fibromyalgia patients; 100 mg/day): 6%
patients with increases in ALT (fibromyalgia patients; 200 mg/day): 7%
patients who became hypertensive at the end of the study (SBP≧140 mmHg or DBP≧90 mmHg) (fibromyalgia patients; 100 mg/day): 19.5%
patients who became hypertensive at the end of the study (SBP≧140 mmHg or DBP≧90 mmHg) (fibromyalgia patients; 200 mg/day): 16.6%
incidence of suicidal ideation (fibromyalgia patients; 100 mg/day): 0%
incidence of suicidal ideation (fibromyalgia patients; 200 mg/day): 1.3%
patients who became hypertensive at the end of the study (fibromyalgia patients; 100 mg/day): 14%
patients who became hypertensive at the end of the study (fibromyalgia patients; 200 mg/day): 14%
suicides (fibromyalgia patients; short-term or longer-term (up to 1 year) fibromyalgia trials): No suicides occurred
activation of mania or hypomania (fibromyalgia patients; trials excluded current major depressive episode): No activation of mania or hypomania was reported
mean weight loss (fibromyalgia patients; 100 mg/day): approximately 0.8 kg
mean weight loss (fibromyalgia patients; 200 mg/day): approximately 0.8 kg
outcome of acute overdoses (patients): fatal outcomes have been reported
plasma protein binding (plasma proteins): 13%
